Where a name gives a salt, the structure may show the parent alone.
Legend:
[1] = Tissue BUP post-administration: drug remaining at the site of injection (HPLC of excised tissue); type: in vivo; details: four hours after injection, mice, subcutaneous
Method: In a separate group of mice, the amount of drug remaining at the site of injection after administration of 0.5% and 3.5% liposomal BUP (formulation 3) or 0.5% free BUP was determined. Three animals were sacrificed at 0, 0.25, 0.5, 1, 2, 4, and 8 hours after injections of all drug formulations and also at 16, 24, 48 and 96 hours after injection of the liposomal formulations. After sacrifice, a 1-cm2 circular tissue section including the entire area of injection, and extending to the peritoneum, was excised. The tissue was homogenized in 1 ml of isopropanol for 1 min, and then centrifuged at 16,000×G (Eppendorf Centrifuge 5417C, Engelsdorf, Germany). The supernatant was diluted 1:100 in isopropanol, and BUP concentration was determined using HPLC. In vivo release kinetics were done in triplicate. Results are presented in FIG. 2, where the absolute amounts remaining are expressed as mean±SD.

[2] = tested on: Male Swiss-Webster mice; details: mouse, in vivo
[3] = tested on: Male Swiss-Webster mice; assay: Analgesic efficacy: sensory block, vocalization response to cutaneous electrical stimulation after subcutaneous injection; type: in vivo; details: 8 mice
Method: All experiments were approved by the Institutional Animal Care and Use Committee. Male Swiss-Webster mice weighing 26+3 g (mean+SD) were used. Animals had free access to food and water, and were maintained on 12-hour dark-light cycle. Prior to testing, the hair overlying the abdomen was shaved. Analgesia was assessed using response to cutaneous electrical stimulation. A current generator (model S48, Grass Instruments, Quincy, Mass.) coupled to a constant current unit (model PSIU6F, Grass Instruments, Quincy, Mass.) was used. The current was delivered to the skin surface by touching it gently with two electrodes fashioned from #25 g needles. The vocalization threshold (the current required to produce a vocalization response) was assessed prior to injection of study solutions. […] To determine analgesic duration, mice were injected with liposomal BUP compositions having 0.5 wt % and 3.5 wt % bupivacaine, respectively, formed by dilution (as necessary of formulation 3, above. Free BUP (0.5%), hyperosmotic saline (580 mM), or drug-free liposomes were used as controls. For all groups, […] of test solution was injected subcutaneously using a #25 g needle in 8 mice. After injection, sensory block was assessed at 5, 15, 30 minutes and then at 1, 1.5, 2, 3, 4.5, 6, 9, 12, 14, 16, 17, and 19 hours. Failure to vocalize in response to stimulation with threshold current was taken as analgesia. […]

SMILES: CCCCN1CCCCC1C(=O)Nc1c(C)cccc1C (centres unmarked) [0.5% free BUP, Bupivacaine hydrochloride]
- amount remaining at the site [1]: 8 mg
- injected dose remaining at the site [1]: 1%
- systemic toxic effects [2]: produced toxicity
- time at which analgesia was exhibited [3]: 30 min
- time at which analgesia was not detected (regressed in all animals) [3]: 2 h
